Columns and labels:
[1] = Cytotoxicity against human NCI-ADR-RES cells assessed as cell growth at 10^-8 M after 24 hrs by SRB assay; format: functional; conditions: read-out: Activity
[2] = system: A498; test: Cytotoxicity against human A498 cells assessed as cell growth at 10^-8 M after 24 hrs by SRB assay; format: functional; conditions: A498, 24 h, read-out: Activity
[3] = Cytotoxicity against human UO31 cells assessed as cell growth at 10^-8 M after 24 hrs by SRB assay; format: functional; conditions: UO-31, 24 h, read-out: Activity
[4] = Cytotoxicity against human HOP92 cells assessed as cell growth at 10^-7 M after 24 hrs by SRB assay; format: functional; conditions: HOP-92, 24 h, read-out: Activity
[5] = system: NCI-H460; test: Cytotoxicity against human NCI-H460 cells assessed as cell growth at 10^-7 M after 24 hrs by SRB assay; format: functional; conditions: NCI-H460, 24 h, read-out: Activity
[6] = system: SR; test: Cytotoxicity against human SR cells assessed as cell growth at 10^-4 M after 24 hrs by SRB assay; format: functional; conditions: read-out: Activity
[7] = Cytotoxicity against human HOP62 cells assessed as cell growth at 10^-4 M after 24 hrs by SRB assay; format: functional; conditions: HOP-62, 24 h, read-out: Activity
[8] = system: SK-MEL-28; test: Cytotoxicity against human SK-MEL-28 cells assessed as cell growth at 10^-7 M after 24 hrs by SRB assay; format: functional; conditions: SK-MEL-28, 24 h, read-out: Activity
[9] = system: 786-0; test: Cytotoxicity against human 786-0 cells assessed as cell growth at 10^-7 M after 24 hrs by SRB assay; format: functional; conditions: 786-0, 24 h, read-out: Activity
[10] = system: A498; test: Cytotoxicity against human A498 cells assessed as cell growth at 10^-7 M after 24 hrs by SRB assay; format: functional; conditions: A498, 24 h, read-out: Activity
[11] = Cytotoxicity against human HOP62 cells after 24 hrs by SRB assay; format: functional; conditions: HOP-62, 24 h
[12] = system: NCI-H322M; test: Cytotoxicity against human NCI-H322M cells after 24 hrs by SRB assay; format: functional
[13] = Cytotoxicity against human SF539 cells after 24 hrs by SRB assay; format: functional, cell-based; conditions: SF-539, 24 h
[14] = system: NCI-H23; test: Cytotoxicity against human NCI-H23 cells assessed as cell growth at 10^-4 M after 24 hrs by SRB assay; format: functional; conditions: NCI-H23, 24 h, read-out: Activity
[15] = Cytotoxicity against human LOXIMVI cells assessed as cell growth at 10^-4 M after 24 hrs by SRB assay; format: functional; conditions: LOX IMVI, read-out: Activity
[16] = system: Malme-3M; test: Cytotoxicity against human MALME-3M cells assessed as cell growth at 10^-4 M after 24 hrs by SRB assay; format: functional; conditions: read-out: Activity
[17] = system: K562; test: Cytotoxicity against human K562 cells assessed as cell growth at 10^-6 M after 24 hrs by SRB assay; format: functional; conditions: K562, 24 h, read-out: Activity
[18] = Cytotoxicity against human UACC62 cells assessed as cell growth at 10^-4 M after 24 hrs by SRB assay; format: functional; conditions: UACC-62, 24 h, read-out: Activity
[19] = Cytotoxicity against human OVCAR5 cells assessed as cell growth at 10^-4 M after 24 hrs by SRB assay; format: functional; conditions: OVCAR-5, 24 h, read-out: Activity
[20] = Cytotoxicity against human UO31 cells assessed as cell growth at 10^-4 M after 24 hrs by SRB assay; format: functional; conditions: UO-31, 24 h, read-out: Activity
[21] = Cytotoxicity against human OVCAR5 cells assessed as cell growth at 10^-6 M after 24 hrs by SRB assay; format: functional; conditions: OVCAR-5, 24 h, read-out: Activity
[22] = Cytotoxicity against human SKOV3 cells assessed as cell growth at 10^-6 M after 24 hrs by SRB assay; format: functional; conditions: SK-OV-3, 24 h, read-out: Activity
[23] = system: SK-MEL-2; test: Cytotoxicity against human SK-MEL-2 cells after 24 hrs by SRB assay; format: functional; conditions: SK-MEL-2, 24 h
[24] = Cytotoxicity against human UACC62 cells after 24 hrs by SRB assay; format: functional, cell-based; conditions: UACC-62, 24 h
[25] = Cytotoxicity against human NCI-ADR-RES cells after 24 hrs by SRB assay; format: functional
[26] = Cytotoxicity against human BT549 cells after 24 hrs by SRB assay; format: functional; conditions: BT-549, 24 h
[27] = Cytotoxicity against human MOLT4 cells after 24 hrs by SRB assay; format: functional; conditions: MOLT-4, 24 h
[28] = system: CCRF-CEM; test: Cytotoxicity against human CCRF-CEM cells after 24 hrs by SRB assay; format: functional
[29] = system: SK-MEL-28; test: Cytotoxicity against human SK-MEL-28 cells assessed as cell growth at 10^-8 M after 24 hrs by SRB assay; format: functional; conditions: SK-MEL-28, 24 h, read-out: Activity
[30] = system: NCI-H522; test: Cytotoxicity against human NCI-H522 cells assessed as cell growth at 10^-5 M after 24 hrs by SRB assay; format: functional; conditions: NCI-H522, 24 h, read-out: Activity
[31] = system: SK-MEL-5; test: Cytotoxicity against human SK-MEL-5 cells assessed as cell growth at 10^-5 M after 24 hrs by SRB assay; format: functional; conditions: SK-MEL-5, 24 h, read-out: Activity
[32] = Cytotoxicity against human PC3 cells assessed as cell growth at 10^-5 M after 24 hrs by SRB assay; format: functional; conditions: PC-3, 24 h, read-out: Activity
[33] = read-out: LC50 (the source's name)
[34] = read-out: pLC50 (the source's name) (converted)

O=C(Nc1cc(-c2cccnc2)nc(NCCCN2CCOCC2)n1)c1cc(Br)cc(C(F)(F)F)c1
growth at 0.01 µM [1]: 100%
growth at 0.01 µM [2]: 91%
growth at 0.01 µM [3]: 95%
growth at 0.1 µM [4]: 80%
growth at 0.1 µM [5]: 100%
growth at 100 µM [6]: -1%
growth at 100 µM [7]: -97%
growth at 0.1 µM [8]: 91%
growth at 0.1 µM [9]: 91%
growth at 0.1 µM [10]: 92%
GI50 ([11]; read-out: GI50): 2.71 µM
CC50 [11, 33]: 32.8 µM
TGI ([11]; read-out: TGI): 9.98 µM
GI50 ([11]; read-out: pGI50 (converted)): 2.69 µM
CC50 [11, 34]: 33.1 µM
TGI ([11]; read-out: pTGI (converted)): 10 µM
GI50 ([12]; read-out: GI50): 3.72 µM
CC50 [12, 33]: 43.2 µM
TGI ([12]; read-out: TGI): 15 µM
GI50 ([12]; read-out: pGI50 (converted)): 3.72 µM
CC50 [12, 34]: 43.7 µM
TGI ([12]; read-out: pTGI (converted)): 15.1 µM
GI50 ([13]; read-out: GI50): 1.67 µM
CC50 [13, 33]: 7.2 µM
TGI ([13]; read-out: TGI): 3.47 µM
GI50 ([13]; read-out: pGI50 (converted)): 1.66 µM
CC50 [13, 34]: 7.24 µM
TGI ([13]; read-out: pTGI (converted)): 3.47 µM
growth at 100 µM [14]: -85%
growth at 100 µM [15]: -93%
growth at 100 µM [16]: -78%
growth at 1 µM [17]: 88%
growth at 100 µM [18]: -90%
growth at 100 µM [19]: -67%
growth at 100 µM [20]: -90%
growth at 1 µM [21]: 92%
growth at 1 µM [22]: 97%
GI50 ([23]; read-out: GI50): 4.52 µM
CC50 [23, 33]: 45.8 µM
TGI ([23]; read-out: TGI): 17 µM
GI50 ([23]; read-out: pGI50 (converted)): 4.47 µM
CC50 [23, 34]: 45.7 µM
TGI ([23]; read-out: pTGI (converted)): 17 µM
GI50 [24]: 1.95 µM
CC50 [24, 33]: 9.92 µM
TGI ([24]; read-out: TGI): 4.38 µM
CC50 [24, 34]: 10 µM
TGI ([24]; read-out: pTGI (converted)): 4.37 µM
GI50 ([25]; read-out: GI50): 2.6 µM
CC50 [25, 33]: 42.9 µM
TGI ([25]; read-out: TGI): 9.11 µM
GI50 ([25]; read-out: pGI50 (converted)): 2.57 µM
CC50 [25, 34]: 42.7 µM
TGI ([25]; read-out: pTGI (converted)): 9.12 µM
GI50 ([26]; read-out: GI50): 3.27 µM
CC50 [26, 33]: 45 µM
TGI ([26]; read-out: TGI): 15 µM
GI50 ([26]; read-out: pGI50 (converted)): 3.24 µM
CC50 [26, 34]: 44.7 µM
TGI ([26]; read-out: pTGI (converted)): 15.1 µM
GI50 ([27]; read-out: GI50): 3.63 µM
CC50 [27, 33]: 59.6 µM
TGI ([27]; read-out: TGI): 13.1 µM
GI50 ([27]; read-out: pGI50 (converted)): 3.63 µM
CC50 [27, 34]: 60.3 µM
TGI ([27]; read-out: pTGI (converted)): 13.2 µM
GI50 ([28]; read-out: GI50): 3.54 µM
CC50 [28, 33]: 93.4 µM
TGI ([28]; read-out: TGI): 12.9 µM
GI50 ([28]; read-out: pGI50 (converted)): 3.55 µM
CC50 [28, 34]: 93.3 µM
TGI ([28]; read-out: pTGI (converted)): 12.9 µM
growth at 0.01 µM [29]: 92%
growth at 10 µM [30]: -32%
growth at 10 µM [31]: -98%
growth at 10 µM [32]: 23%

From ChEMBL document CHEMBL3774345, “Synthesis of new diarylamides with pyrimidinyl pyridine scaffold and evaluation of their anti-proliferative effect on cancer cell lines” (Bioorg Med Chem Lett, 2016)
